Measured values taken from patent US20240336608A1, “IL4I1 INHIBITORS AND METHODS OF USE” (Merck Sharp & Dohme LLC, priority 2023, published 2024).

target: T1, recombinant IL4I1 (Homo sapiens, UniProt Q96RQ9); test: IL4I1 Enzymatic Assay (Amplex Red/HRP coupled detection of H2O2, fluorescence); format: biochemical; settings: 1 nM recombinant IL4I1; four-hour pre-incubation with compound; 1 mM each Phe, Tyr, Trp; ten-point titration
T1 construct: purchased R&D Systems 5684-AO-020
T1 sequence (Q96RQ9 22-567): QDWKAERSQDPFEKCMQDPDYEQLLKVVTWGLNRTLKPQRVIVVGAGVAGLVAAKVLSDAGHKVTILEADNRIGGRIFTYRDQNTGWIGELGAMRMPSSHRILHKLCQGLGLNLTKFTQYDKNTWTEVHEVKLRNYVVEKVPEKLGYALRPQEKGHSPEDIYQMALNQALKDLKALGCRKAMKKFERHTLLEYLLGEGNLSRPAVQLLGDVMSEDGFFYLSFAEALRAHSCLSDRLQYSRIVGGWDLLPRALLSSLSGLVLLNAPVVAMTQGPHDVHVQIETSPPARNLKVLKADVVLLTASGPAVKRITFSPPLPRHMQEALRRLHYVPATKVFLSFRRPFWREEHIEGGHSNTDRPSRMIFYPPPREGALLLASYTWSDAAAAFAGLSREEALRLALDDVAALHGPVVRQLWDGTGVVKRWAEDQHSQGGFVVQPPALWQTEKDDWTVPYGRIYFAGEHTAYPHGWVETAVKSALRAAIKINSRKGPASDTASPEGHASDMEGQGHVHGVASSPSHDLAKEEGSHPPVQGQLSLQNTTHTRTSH
Outline: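 H2O2 output was coupled to resorufin fluorescence (ex 544/em 590) via 0.05 mM Amplex Red and 1 U/mL HRP. Substrate: Phe, Tyr, Trp at 1 mM each; enzyme 1 nM, 4 h compound pre-incubation, 120 min reaction, pH 7.0 Hepes. EC50 by nonlinear four-parameter regression, 1:3 ten-point titration.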

| SMILES | EC50 [nM] |
| --- | --- |
| O=C(NCc1nnc(-c2ccccc2)s1)c1cn(CC2CCCC2)nn1 [Example 78, 1-(cyclopentylmethyl)-N-((5-phenyl-1,3,4-thiadiazol-2-yl)methyl)-1H-1,2,3-triazole-4-carboxamide] | 34 |
| O=C(NCc1nnc(-c2ccccc2)s1)c1cn(CC2CCCO2)nn1 (stereo not shown) [Example 79, N-((5-phenyl-1,3,4-thiadiazol-2-yl)methyl)-1-((tetrahydrofuran-2-yl)methyl)-1H-1,2,3-triazole-4-carboxamide] | 110 |
| CCC(CC)Cn1cc(C(=O)NCc2nnc(-c3ccccc3)s2)nn1 [Example 82, 1-(2-ethylbutyl)-N-((5-phenyl-1,3,4-thiadiazol-2-yl)methyl)-1H-1,2,3-triazole-4-carboxamide] | 282 |
| O=C(NCc1nnc(-c2ccccc2)s1)c1cn(CC2CCCCO2)nn1 (stereo not shown) [Example 83, N-((5-phenyl-1,3,4-thiadiazol-2-yl)methyl)-1-((tetrahydro-2H-pyran-2-yl)methyl)-1H-1,2,3-triazole-4-carboxamide] | 361 |
| N#CCCCn1cc(C(=O)NCc2nnc(-c3ccccc3)s2)nn1 [Example 84, 1-(3-cyanopropyl)-N-((5-phenyl-1,3,4-thiadiazol-2-yl)methyl)-1H-1,2,3-triazole-4-carboxamide] | 52 |
| CC(C)(C)Cn1cc(C(=O)NCc2nnc(-c3ccccc3)s2)nn1 [Example 86, 1-neopentyl-N-((5-phenyl-1,3,4-thiadiazol-2-yl)methyl)-1H-1,2,3-triazole-4-carboxamide] | 42 |
| CCC(C)Cn1cc(C(=O)NCc2nnc(-c3ccccc3)s2)nn1 (stereo not shown) [Example 89, 1-(2-methylbutyl)-N-((5-phenyl-1,3,4-thiadiazol-2-yl)methyl)-1H-1,2,3-triazole-4-carboxamide] | 37 |
| N#CCCCCn1cc(C(=O)NCc2nnc(-c3ccccc3)s2)nn1 [Example 90, 1-(4-cyanobutyl)-N-((5-phenyl-1,3,4-thiadiazol-2-yl)methyl)-1H-1,2,3-triazole-4-carboxamide] | 27 |
| CCOCCn1cc(C(=O)NCc2nnc(-c3ccccc3)s2)nn1 [Example 91, 1-(2-ethoxyethyl)-N-((5-phenyl-1,3,4-thiadiazol-2-yl)methyl)-1H-1,2,3-triazole-4-carboxamide] | 27 |
| CC(C)CCn1cc(C(=O)NCc2nnc(-c3ccccc3)s2)nn1 [Example 94, 1-isopentyl-N-((5-phenyl-1,3,4-thiadiazol-2-yl)methyl)-1H-1,2,3-triazole-4-carboxamide] | 68 |
| O=C(NCc1nnc(-c2ccccc2)s1)c1cn(C2CCCCC2)nn1 [Example 95, 1-cyclohexyl-N-((5-phenyl-1,3,4-thiadiazol-2-yl)methyl)-1H-1,2,3-triazole-4-carboxamide] | 189 |
| CC1(O)CCC(n2cc(C(=O)NCc3nnc(-c4ccccc4)s3)nn2)CC1 (stereo not shown) [Example 97, 1-(4-hydroxy-4-methylcyclohexyl)-N-((5-phenyl-1,3,4-thiadiazol-2-yl)methyl)-1H-1,2,3-triazole-4-carboxamide] | 486 |
| O=C(NCc1nnc(-c2ccccc2)s1)c1cn(CCCC(F)(F)F)nn1 [Example 98, N-((5-phenyl-1,3,4-thiadiazol-2-yl)methyl)-1-(4,4,4-trifluorobutyl)-1H-1,2,3-triazole-4-carboxamide] | 272 |
| O=C(NCc1nnc(-c2ccccc2)s1)c1cn(Cc2ccncc2)nn1 [Example 99, N-((5-phenyl-1,3,4-thiadiazol-2-yl)methyl)-1-(pyridin-4-ylmethyl)-1H-1,2,3-triazole-4-carboxamide] | 21 |
| CC(=O)N1CC(n2cc(C(=O)NCc3nnc(-c4ccccc4)s3)nn2)C1 [Example 102, 1-(1-acetylazetidin-3-yl)-N-((5-phenyl-1,3,4-thiadiazol-2-yl)methyl)-1H-1,2,3-triazole-4-carboxamide] | 296 |
| O=C(NCc1nnc(-c2ccccc2)s1)c1cn(C2CN(C(=O)C3CC3)C2)nn1 [Example 103, 1-(1-(cyclopropanecarbonyl)azetidin-3-yl)-N-((5-phenyl-1,3,4-thiadiazol-2-yl)methyl)-1H-1,2,3-triazole-4-carboxamide] | 542 |
| Cc1ccc(-n2cc(C(=O)NCc3nnc(-c4ccc(F)cc4F)s3)nn2)c(C)n1 [Example 105, N-((5-(2,4-difluorophenyl)-1,3,4-thiadiazol-2-yl)methyl)-1-(2,6-dimethylpyridin-3-yl)-1H-1,2,3-triazole-4-carboxamide] | 909 |
| Cc1ccc(-n2cc(C(=O)NCc3nnc(-c4ccc(F)c(F)c4)s3)nn2)c(C)n1 [Example 106, N-((5-(3,4-difluorophenyl)-1,3,4-thiadiazol-2-yl)methyl)-1-(2,6-dimethylpyridin-3-yl)-1H-1,2,3-triazole-4-carboxamide] | 695 |
| Cc1ccc(-n2cc(C(=O)NCc3nnc(-c4ccccc4C)s3)nn2)c(C)n1 [Example 107, 1-(2,6-dimethylpyridin-3-yl)-N-((5-(o-tolyl)-1,3,4-thiadiazol-2-yl)methyl)-1H-1,2,3-triazole-4-carboxamide] | 58 |
| Cc1ccc(-n2cc(C(=O)NCc3nnc(-c4cc(F)ccc4F)s3)nn2)c(C)n1 [Example 108, N-((5-(2,5-difluorophenyl)-1,3,4-thiadiazol-2-yl)methyl)-1-(2,6-dimethylpyridin-3-yl)-1H-1,2,3-triazole-4-carboxamide] | 651 |
| Cc1ccc(-n2cc(C(=O)NCc3nnc(-c4ccsc4C)s3)nn2)c(C)n1 [Example 109, 1-(2,6-dimethylpyridin-3-yl)-N-((5-(2-methylthiophen-3-yl)-1,3,4-thiadiazol-2-yl)methyl)-1H-1,2,3-triazole-4-carboxamide] | 29 |

Stronger by EC50, values ahead:

| EC50 [nM] | SMILES |
| --- | --- |
| 14 | N#CCn1cc(C(=O)NCc2nnc(-c3ccccc3)s2)nn1 [Example 74, 1-(cyanomethyl)-N-((5-phenyl-1,3,4-thiadiazol-2-yl)methyl)-1H-1,2,3-triazole-4-carboxamide] |
| 17 | C[C@@H](CO)Cn1cc(C(=O)NCc2nnc(-c3ccccc3)s2)nn1 [Example 75, (R)-1-(3-hydroxy-2-methylpropyl)-N-((5-phenyl-1,3,4-thiadiazol-2-yl)methyl)-1H-1,2,3-triazole-4-carboxamide] |
| 4 | C[C@H](CO)Cn1cc(C(=O)NCc2nnc(-c3ccccc3)s2)nn1 [Example 76, (S)-1-(3-hydroxy-2-methylpropyl)-N-((5-phenyl-1,3,4-thiadiazol-2-yl)methyl)-1H-1,2,3-triazole-4-carboxamide] |
| 12 | O=C(NCc1nnc(-c2ccccc2)s1)c1cn(CC2CCC2)nn1 [Example 77, 1-(cyclobutylmethyl)-N-((5-phenyl-1,3,4-thiadiazol-2-yl)methyl)-1H-1,2,3-triazole-4-carboxamide] |
| 2 | O=C(NCc1nnc(-c2ccccc2)s1)c1cn(CCF)nn1 [Example 80, 1-(2-fluoroethyl)-N-((5-phenyl-1,3,4-thiadiazol-2-yl)methyl)-1H-1,2,3-triazole-4-carboxamide] |
| 6 | CNC(=O)Cn1cc(C(=O)NCc2nnc(-c3ccccc3)s2)nn1 [Example 81, 1-(2-(methylamino)-2-oxoethyl)-N-((5-phenyl-1,3,4-thiadiazol-2-yl)methyl)-1H-1,2,3-triazole-4-carboxamide] |
| 15 | COCCOCCn1cc(C(=O)NCc2nnc(-c3ccccc3)s2)nn1 [Example 85, 1-(2-(2-methoxyethoxy)ethyl)-N-((5-phenyl-1,3,4-thiadiazol-2-yl)methyl)-1H-1,2,3-triazole-4-carboxamide] |
| 18 | N#CC1(Cn2cc(C(=O)NCc3nnc(-c4ccccc4)s3)nn2)CC1 [Example 87, 1-((1-cyanocyclopropyl)methyl)-N-((5-phenyl-1,3,4-thiadiazol-2-yl)methyl)-1H-1,2,3-triazole-4-carboxamide] |
| 13 | CC(C)Cn1cc(C(=O)NCc2nnc(-c3ccccc3)s2)nn1 [Example 88, 1-isobutyl-N-((5-phenyl-1,3,4-thiadiazol-2-yl)methyl)-1H-1,2,3-triazole-4-carboxamide] |
| 3 | CCCn1cc(C(=O)NCc2nnc(-c3ccccc3)s2)nn1 [Example 92, N-((5-phenyl-1,3,4-thiadiazol-2-yl)methyl)-1-propyl-1H-1,2,3-triazole-4-carboxamide] |
| 8 | O=C(NCc1nnc(-c2ccccc2)s1)c1cn(CCCF)nn1 [Example 93, 1-(3-fluoropropyl)-N-((5-phenyl-1,3,4-thiadiazol-2-yl)methyl)-1H-1,2,3-triazole-4-carboxamide] |
| 16 | COCCCn1cc(C(=O)NCc2nnc(-c3ccccc3)s2)nn1 [Example 96, 1-(3-methoxypropyl)-N-((5-phenyl-1,3,4-thiadiazol-2-yl)methyl)-1H-1,2,3-triazole-4-carboxamide] |
| 19 | O=C(NCc1nnc(-c2ccccc2)s1)c1cn(Cc2ccccn2)nn1 [Example 101, N-((5-phenyl-1,3,4-thiadiazol-2-yl)methyl)-1-(pyridin-2-ylmethyl)-1H-1,2,3-triazole-4-carboxamide] |
